{
  "source": "patent US4959182A",
  "about": "“Method and compositions providing enhanced chemiluminescence from 1,2-dioxetanes” (priority 1989, dated 1990)",
  "key": {"[1]": {"system": "Alkaline Phosphatase from Bovine Intestinal Mucosa", "assay": "Alkaline phosphatase triggering of xanthenone-derived phosphate dioxetane", "assay_type": "biochemical", "experimental": "Triggering experiments were conducted using alkaline phosphatase from bovine intestinal mucosa suspension of 5.3 mg of protein (1100 units/mg protein) per mL in 3.2 M (NH4)2 SO4 ]and the phosphate-protected dioxetane at pH 10.3 in 0.75 M 2-amino-2-methyl- 1-propanol buffer. […]. […] The rate of decay of the emission is a function of enzyme concentration while the total light emission is independent of the enzyme concentration because of turnover of the enzyme. The chemiluminescence spectrum for the phosphatase-catalyzed decomposition was obtained at room temperature in the buffer solution."}, "[2]": {"assay_type": "physicochemical"}, "[3]": {"assay_type": "physicochemical", "experimental": "Rates for thermal decomposition of the stable dioxetanes were monitored by the decay of chemiluminescence of aerated solutions. A cylindrical Pyrex vial equipped with magnetic stir bar was filled with 3-4 mL of the reaction solvent, sealed with a Teflon-lined screw cap and placed in the thermostatted sample block of the chemiluminescence-measuring luminometer. Temperature control was provided by an external circulating water bath. Appropriate values for the instrument gain and optical slit size were selected. […]. The vial was sealed with a Teflon-lined screw cap to prevent evaporation when high temperatures were used. Measurement of the signal was begun by opening the shutter. The chemiluminescent decay was generally recorded for at least three half-lives. Calculation of the first-order rate constant (k) from the In (Intensity) vs. time data was performed by a computer program utilizing a standard least-squares treatment. The correlation coefficient (r) was typically at least 0.999 and k varied less than 5% between replicate samples.\nActivation parameters for decomposition of the dioxetanes were calculated from plots of In k vs. 1/T (Arrhenius eq.) or In k/t vs. 1/T (Eyring eq.) by a standard least-squares linear regression analysis.\nActivation Energies for Thermal Decomposition of Dioxetanes", "remark": "listed apart in the source"}, "[4]": {"assay": "Base-triggered chemiluminescence of dioxetanes 2a/2b in DMSO, water, CTAB micelles and micelles with fluorescent co-surfactant", "source_text": "The chemiluminescence quantum yield (.PHI.CL) for the decomposition of dioxetanes is defined as the ratio of einsteins of chemiluminescence emitted to moles of dioxetane decomposed. Sufficient energy is released during the reaction from the reaction enthalpy (ΔHR) plus the Arrhenius activation energy (Ea) to populate the singlet excited state of one of the carbonyl cleavage products. Therefore, the maximum quantum yield is 1.0. Another parameter of interest is the chemiexcitation quantum yield (.PHI.CE) which is defined as the ratio of excited states formed to dioxetane decomposed. The chemiexcitation quantum yield is related to the chemiluminescence quantum yield via the fluorescence quantum yield of the dioxetane cleavage (.PHI.F) through the equation: .phi.CL =.phi.CE X .phi.F.\nThe same procedure as those employed in the measurement of the decay kinetics was used for the determination of chemiluminescence quantum yields with the following modifications. An accurately measured aliquot of a dioxetane stock solution of known concentration was added to 3 mL of the pre-thermostatted organic solvent or aqueous buffer. The reaction was then triggered by adding the appropriate chemical reagent or enzyme. The total light intensity was integrated by a photon-counting luminometer using an RCA A-31034A gallium-arsenide PMT cooled to -78° C.\nSpectra of the chemiluminescence from chemically or enzymatcally triggered dioxetanes were obtained by conducting the reaction in a 1-cm square quartz cuvette in the sample compartment of a Spex Fluorolog spectrofluorometer at ambient temperature. Correction for the decay of the chemiluminescence intensity during the wavelength scan was made by accumulating the spectrum in a ratio mode so that the observed spectrum was divided by the signal from an auxiliary detector (EMI 9781B) which measures the total signal as a function of time. The monochromator bandpass was typically 18 nm. For weakly emitting samples, several identical scans were performed and added together to improve the signal-to-noise ratio.\n1. Triggering the Chemiluminescence of Hydroxy-Substituted Dioxetane 2a with Base.\n2. […] Cationic surfactants such as cetyltrimethylammonium bromide (CTAB) can be used to increase rates for chemical triggering of chemiluminescence from appropriately substituted dioxetanes in aqueous solution. […] The dioxetane is solubilized in the micelles formed by the surfactant and NaOH is added to initiate the chemiluminescence. […] Typically, the experiments were carried out with [2b]=9.1×10^-5 M, [CTAB]=2×10^-3 M, and [OH^- ]=9.1×10^-5 M at 37° C.\nSimilar experiments were conducted with the benzothiazamide surfactant 4. […] Enzymatic Triggering of Phosphate-Substituted Dioxetane 2c."}, "[5]": {"system": "Urease", "assay": "Triggering of hydroxy-substituted dioxetane 2a with urease in fluorescent micelles", "assay_type": "biochemical", "conditions": "10 μL of 3×10^-3 M 2a, CTAB and 3, room temperature", "experimental": "5. Enzymatic Triggering of Hydroxy-Substituted Dioxetane 2a with Urease in the Prescence of Fluorescent Micelles. A solution was prepared using 160 mg of CTAB and 12.4 mg of fluorescein surfactant 3 in 200 mL of distilled water. A urea solution was made by dissolving 200 mg of urea in 100 mL of distilled water with EDTA added to give a final concentration of 0.4 mM. The substrate solution for the urease experiments was obtained by mixing 10mL of each stock solution.\nExperiments were carried out with urease (Sigma) by incubation at room temperature for periods of 0.5 to 2 hours. […] The intensity of the luminescence provided a measure of the concentration of urease."}, "[6]": {"system": "firefly luciferase", "conditions": "cationic surfactant; cited from earlier work"}, "[7]": {"assay": "Fluorescence of ester cleavage product / self-quenching of fluorescer", "assay_type": "physicochemical", "source_text": "However, the chemiluminescent decomposition of this dioxetane can be conveniently triggered at room temperature by removal of the silyl-protecting with fluoride ion to generate the unstable, aryloxide form which cleaves to yield intense blue light.\nIn general the molar ratio of the dioxetane to fluorescent compound is between about 1,000 to 1 and 1 to 1 whether in solution or in a solid composition."}, "[8]": {"conditions": "thermal decomposition in xylene"}},
  "note": "Read-outs that look alike come from different tables or passages of the source.",
  "data": [
    {"smiles": "O=P(O)(O)Oc1ccc2c(c1)Oc1ccccc1C21OOC12C1CC3CC(C1)CC2C3", "note": "(stereo not drawn)", "values": [
      {"measurement": "period of chemiluminescence decay", "setting": "[1]; 4.2×10^-6 M dioxetane, 1.8 μg/mL protein, pH 10.3, 37° C.", "result": 3, "unit": "min"},
      {"measurement": "total light emission vs dioxetane concentration", "setting": "[1]; pH 10.3, 37° C.", "result": "linearly dependent on the dioxetane concentration"},
      {"measurement": "background luminescence from non-enzymatic hydrolysis, of enzymatic", "setting": "[1]; pH 10.3 buffer, over 3 min, 37° C.", "result": 0.2, "unit": "%"},
      {"measurement": "half-life", "setting": "[2]; 25° C.", "result": 4380, "unit": "days"},
      {"measurement": "spontaneous decomposition in aqueous buffers", "setting": "[2]; aqueous buffers", "result": "very slow spontaneous decomposition"},
      {"measurement": "activation energy", "setting": "[2]; thermal", "result": 30.7, "unit": "kcal/mol"}
    ]},
    {"smiles": "COC1(c2cccc(O)c2)OOC12C1CC3CC(C1)CC2C3", "note": "(stereo not drawn) [2a, 4-(3-Hydroxyphenyl)-4-methoxyspiro[1,2-dioxetane-3,2'-adamantane]]", "values": [
      {"measurement": "half-life", "setting": "[3]; in xylene, 25° C., read-out: t1/2 at 25° C. (converted)", "result": 1500, "unit": "days"},
      {"measurement": "Ea", "setting": "[3]; [8]", "result": 28.3},
      {"measurement": "Log A", "setting": "[3]; [8]", "result": 12.5},
      {"measurement": "k(sec^-1) at 25° C.", "setting": "[3]; thermal decomposition in xylene, 25° C.", "result": "5.38e-09", "unit": "s⁻¹"},
      {"measurement": "period of chemiluminescence decay", "setting": "[4]; 10^-4 M, excess tetra-n-butylammonium hydroxide, DMSO, room temperature", "result": "several minutes"},
      {"measurement": "chemiluminescence quantum yield (.PHI.CL)", "setting": "[4]; base in DMSO", "result": 0.25},
      {"measurement": "light yield (chemiluminescence quantum yield)", "setting": "[4]; base in water", "result": "8.9×10^-6"},
      {"measurement": "emission maximum for the chemiluminescence", "setting": "[4]; tetra-n-butylammonium hydroxide in DMSO, room temperature", "result": 470, "unit": "nm"},
      {"measurement": "luminescence after incubation with urease", "setting": "[5]", "result": "produced chemiluminescence"}
    ]},
    {"smiles": "CCCCCCCCCCCCCCCC[N+](C)(C)C.[Br-]", "note": "[CTAB, cetyltrimethylammonium bromide]", "values": [
      {"measurement": "inhibition of the catalytic activity of the luciferase", "setting": "[6]", "result": "complete inhibition"}
    ]},
    {"smiles": "CCCCCCCCCCCCCC(=O)Nc1ccc2c(c1)C(=O)OC21c2ccc(O)cc2Oc2cc(O)ccc21", "note": "[compound 3]", "values": [
      {"measurement": "self-quenching when used alone in solution", "setting": "[7]; no CTAB", "result": "quenches itself when used alone in solution"}
    ]},
    {"smiles": "COC(=O)c1cccc(O)c1", "note": "[methyl 3-hydroxylbenzoate]", "values": [
      {"measurement": "fluorescence quantum yield (.PHI.^F)", "setting": "[7]; ester cleavage product under conditions of fluoride triggering", "result": 0.44}
    ]}
  ]
}
